We go through 25 molecules from ChEMBL document CHEMBL1138703, “Allosteric potentiators of the metabotropic glutamate receptor 2 (mGlu2). Part 2: 4-thiopyridyl acetophenones as non-tetrazole containing mGlu2 receptor potentiators” (Bioorg Med Chem Lett, 2004).

Each structure is given as a SMILES string.

Data set [1] in a line: Ratio of brain to plasma levels was determined upon administration at 20 mpk intraperitoneally after 2 h. It counts as ADME. The note with it: rat, brain and plasma, ip, 20 mg/kg.
Data set [2] can be described thus: Total clearance in rat plasma upon administration at 2 mpk iv or 10 mpk po. Particulars: 2 mg/kg; call rule not given here. It counts as ADME, organism-based.
Data set [3] is described as follows: Bioavailability in rat (dose 2 mg/kg i.v. and 10 mg/kg p.o.). It is filed as ADME, organism-based. Particulars: in vivo, po.
For data set [4], the target named is T1, Metabotropic glutamate receptor 2 (Homo sapiens, UniProt Q14416). Put plainly: Binding affinity for human metabotropic glutamate receptor 2 in [35S]GTP gamma S binding assay; not active at < 10 uM. It is filed as functional. On the technique in general: Binding of GTPγS marks nucleotide exchange on a G protein.
Target sequence in this assay (Q14416 whole entry): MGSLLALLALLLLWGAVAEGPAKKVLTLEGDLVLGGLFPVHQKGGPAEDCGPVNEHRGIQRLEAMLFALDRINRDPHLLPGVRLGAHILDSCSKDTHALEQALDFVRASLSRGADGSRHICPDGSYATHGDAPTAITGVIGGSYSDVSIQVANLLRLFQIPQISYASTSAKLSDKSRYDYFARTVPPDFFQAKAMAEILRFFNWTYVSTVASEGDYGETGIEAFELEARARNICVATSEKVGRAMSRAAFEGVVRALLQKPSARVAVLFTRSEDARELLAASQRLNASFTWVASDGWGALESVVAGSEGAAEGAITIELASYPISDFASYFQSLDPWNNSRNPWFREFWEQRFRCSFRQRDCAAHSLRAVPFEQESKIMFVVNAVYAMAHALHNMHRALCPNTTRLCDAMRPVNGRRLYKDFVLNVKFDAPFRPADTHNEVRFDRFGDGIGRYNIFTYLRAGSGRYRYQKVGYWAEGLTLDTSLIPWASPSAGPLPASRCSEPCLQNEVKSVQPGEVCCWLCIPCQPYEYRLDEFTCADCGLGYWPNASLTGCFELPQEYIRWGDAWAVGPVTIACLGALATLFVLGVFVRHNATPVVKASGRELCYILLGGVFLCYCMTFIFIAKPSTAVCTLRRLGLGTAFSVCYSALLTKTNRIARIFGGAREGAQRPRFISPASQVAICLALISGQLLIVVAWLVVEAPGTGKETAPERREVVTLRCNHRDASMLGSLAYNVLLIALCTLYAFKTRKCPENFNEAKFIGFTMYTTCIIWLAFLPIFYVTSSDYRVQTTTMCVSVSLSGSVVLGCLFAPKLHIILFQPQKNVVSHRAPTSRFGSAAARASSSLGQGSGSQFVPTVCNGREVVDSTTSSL
Data set [5] addresses T1, Metabotropic glutamate receptor 2. Nature of the data set: Binding affinity towards human metabotropic glutamate receptor 2 determined by [35S]GTP gamma S binding assay. It is filed as functional.
Target sequence in this assay (Q14416 whole entry): as above
Data set [6] has the same target. Put plainly: Potentiation as percent of maximum glutamate response at 1 mM.
Target sequence in this assay (Q14416 19-872 limits assumed): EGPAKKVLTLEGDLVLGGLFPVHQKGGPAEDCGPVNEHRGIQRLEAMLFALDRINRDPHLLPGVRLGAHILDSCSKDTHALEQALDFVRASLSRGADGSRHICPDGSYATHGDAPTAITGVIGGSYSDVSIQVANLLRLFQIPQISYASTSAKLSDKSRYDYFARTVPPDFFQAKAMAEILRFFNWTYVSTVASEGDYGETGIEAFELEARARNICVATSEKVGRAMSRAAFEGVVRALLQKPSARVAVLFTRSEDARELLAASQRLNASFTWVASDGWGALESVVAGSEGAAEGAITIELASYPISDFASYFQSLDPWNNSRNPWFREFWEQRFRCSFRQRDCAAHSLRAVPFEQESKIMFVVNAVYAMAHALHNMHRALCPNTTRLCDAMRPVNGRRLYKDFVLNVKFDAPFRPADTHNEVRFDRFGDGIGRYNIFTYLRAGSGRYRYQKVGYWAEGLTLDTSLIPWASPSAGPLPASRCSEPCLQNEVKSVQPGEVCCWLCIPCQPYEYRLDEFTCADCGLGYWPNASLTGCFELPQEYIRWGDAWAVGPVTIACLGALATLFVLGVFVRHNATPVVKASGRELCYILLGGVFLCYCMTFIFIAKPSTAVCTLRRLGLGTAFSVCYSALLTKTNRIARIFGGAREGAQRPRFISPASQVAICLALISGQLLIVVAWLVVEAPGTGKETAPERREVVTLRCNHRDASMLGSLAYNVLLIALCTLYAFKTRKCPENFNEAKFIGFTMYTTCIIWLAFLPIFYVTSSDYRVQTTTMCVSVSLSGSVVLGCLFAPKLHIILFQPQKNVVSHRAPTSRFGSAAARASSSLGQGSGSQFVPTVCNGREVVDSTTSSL
A short description of data set [7]: Compound level in rat brain was determined upon administration at 2 mpk iv or 10 mpk po. It counts as ADME, organism-based. The note with it: in vivo, read-out: Concentration in Brain.

Regarding `CCCc1c(OCCCCOc2ccc(-c3nnn[nH]3)cc2)ccc(C(C)=O)c1O`, in data set [1], the partition ratio (Kp) (commonly the ratio of the level in a tissue or fluid to that in plasma or blood) at 2 h was 0.01. In addition, the clearance in data set [2] stood at 33 mL/min/kg. The bioavailability (as a rule, the share of a dose that reaches the circulation, judged against a reference dose that is usually intravenous) in data set [3] was 63%.

Regarding `Cc1c(OCCCCCSc2ccncc2)ccc(C(=O)CC(C)C)c1O`, the concentration for a half-maximal effect (EC50) (usually the midpoint of the concentration-response curve) in data set [4] is on record as “Not Active”.

In data set [5], `Cc1c(OCCCCOc2cccc(F)c2F)ccc(C(=O)CC(C)C)c1O` yielded an EC50 of 384 nM. For the same molecule, the Potentiation in data set [6] was 18%.

In turn, `Cc1c(OCCCCOc2cccnc2)ccc(C(=O)CC(C)C)c1O` gave an EC50 in data set [5] of 1720 nM. Also, in data set [6], the Potentiation came to 46%.

In the case of `Cc1c(OCCCCOc2ccc(-c3nn[nH]n3)cc2)ccc(C(=O)CC(C)C)c1O`, in data set [1], the partition ratio (Kp) at 2 h is 0.03. The clearance in data set [2] turned out to be 15 mL/min/kg. This molecule also returned a bioavailability in data set [3] of 59%.

Take `Cc1c(OCCCCOc2ccccn2)ccc(C(=O)CC(C)C)c1O`: in data set [5], the concentration for a half-maximal effect (EC50) came out at 3270 nM. For the same molecule, the Potentiation in data set [6] came to 33%.

Molecule `CC(C)CC(=O)c1ccc(OCCCCOc2cccc(F)c2F)c(Br)c1O` came in with a half-maximal effective concentration (EC50) in data set [5] of 558 nM. In data set [6], the Potentiation amounted to 88%. The same molecule registered a clearance in data set [2] of 75 mL/min/kg. In addition, the bioavailability in data set [3] is 0%.

As to `CC(C)CC(=O)c1ccc(OCCCCSc2ccncc2)c(Br)c1O`, the EC50 in data set [5] came out at 676 nM. In data set [6], the Potentiation was 82%.

As to `CC(C)CC(=O)c1ccc(OCCCCOc2ccccc2)c(Br)c1O`, it took 1500 nM to reach a half-maximal effect in data set [5] (EC50). Moreover, the Potentiation in data set [6] is 53%.

Regarding `Cc1c(OCCCSc2ccncc2)ccc(C(=O)CC(C)C)c1O`, the EC50 entry in data set [4] is “Not Active”.

In data set [5], `Cc1c(OCCCCOc2ccccc2F)ccc(C(=O)CC(C)C)c1O` gave an EC50 of 1990 nM. The Potentiation in data set [6] was 30%.

`Cc1c(OCc2ccccc2Sc2ccncc2)ccc(C(=O)CC(C)C)c1O` registered an EC50 in data set [5] of 677 nM. The Potentiation in data set [6] worked out at 38%.

In data set [5], `Cc1c(OCCCCOc2ccc(-n3cncn3)cc2)ccc(C(=O)CC(C)C)c1O` showed a 50% effective concentration (EC50) of 4240 nM. Also, in data set [6], the Potentiation came to 18%.

On to `Cc1c(OCc2cccc(CSc3ccncc3)c2)ccc(C(=O)CC(C)C)c1O`, for which the midpoint of the response in data set [5], the EC50, lay at 819 nM. The concentration in data set [7] is 330 nM. Moreover, the Potentiation in data set [6] stood at 68%. Moreover, the Kp at 2 h in data set [1] came out at 1.2.

Consider `Cc1c(OCCCCOc2ccncc2)ccc(C(=O)CC(C)C)c1O`, for which, in data set [5], the EC50 is 3850 nM. In data set [6], the Potentiation turned out to be 40%.

As to `Cc1c(OCc2cccc(Sc3ccncc3)c2)ccc(C(=O)CC(C)C)c1O`, the EC50 in data set [5] worked out at 890 nM. In data set [6], the Potentiation was 58%.

In turn, `Cc1c(OCCCCSc2ccncc2)ccc(C(=O)CC(C)C)c1O` gave an EC50 in data set [5] of 340 nM. In data set [7], the concentration came out at 400 nM. In data set [6], the Potentiation turned out to be 33%. The Kp at 2 h in data set [1] amounted to 1.1. Moreover, the clearance in data set [2] is 33 mL/min/kg. Moreover, the bioavailability in data set [3] stood at 3%.

In data set [5], `Cc1c(OCc2ccc(Sc3ccncc3)cc2)ccc(C(=O)CC(C)C)c1O` gave an EC50 of 1060 nM. Besides, the Potentiation in data set [6] stood at 38%.

`Cc1c(OCc2ccc(CSc3ccncc3)cc2)ccc(C(=O)CC(C)C)c1O` showed a concentration for a half-maximal effect (EC50) in data set [5] of 770 nM. Also, in data set [6], the Potentiation was determined as 78%.

As for `Cc1c(OCCCCOc2ccccc2)ccc(C(=O)CC(C)C)c1O`, in data set [5], the midpoint of the response, the EC50, lay at 4550 nM. In addition, in data set [6], the Potentiation is 24%.

In turn, `CC(C)CC(=O)c1ccc(OCCCCOc2cccnc2)c(Br)c1O` returned an EC50 in data set [5] of 575 nM. In data set [6], the Potentiation came out at 67%.

Take `Cc1c(OCCCCSc2cccnc2)ccc(C(=O)CC(C)C)c1O`: the EC50 in data set [5] was determined as 1090 nM. For the same molecule, the Potentiation in data set [6] was 26%.

On to `Cc1c(OCCCCSc2ccccn2)ccc(C(=O)CC(C)C)c1O`, for which, in data set [5], the response was half-maximal at 1530 nM (EC50). Besides, in data set [6], the Potentiation came out at 21%.

The molecule `Cc1c(OCc2ccc(Sc3ccncc3)cc2)ccc(C(=O)CC(C)(C)C)c1O` displayed an EC50 in data set [5] of 578 nM. In addition, the concentration in data set [7] was 340 nM. Besides, the Potentiation in data set [6] stood at 79%. Moreover, the concentration ratio (Kp) at 2 h in data set [1] worked out at 0.21.

Take `COc1ccccc1Oc1ccc(N(Cc2cccnc2)S(=O)(=O)CC(F)(F)F)cc1`: in data set [7], the concentration stood at 10 nM. Also, the Kp at 2 h in data set [1] amounted to 0.15. Besides, the clearance in data set [2] turned out to be 70 mL/min/kg. The same molecule displayed a bioavailability in data set [3] below 1%.
